Experimental findings from ChEMBL document CHEMBL5360570, “Discovery of pyrazolo[3,4-b]pyridine derivatives as novel and potent Mps1 inhibitors for the treatment of cancer” (Eur J Med Chem, 2023) are described below.

Assay [1] deals with T1, Dual specificity protein kinase TTK (Homo sapiens, UniProt P33981).
T1 sequence (P33981 whole entry): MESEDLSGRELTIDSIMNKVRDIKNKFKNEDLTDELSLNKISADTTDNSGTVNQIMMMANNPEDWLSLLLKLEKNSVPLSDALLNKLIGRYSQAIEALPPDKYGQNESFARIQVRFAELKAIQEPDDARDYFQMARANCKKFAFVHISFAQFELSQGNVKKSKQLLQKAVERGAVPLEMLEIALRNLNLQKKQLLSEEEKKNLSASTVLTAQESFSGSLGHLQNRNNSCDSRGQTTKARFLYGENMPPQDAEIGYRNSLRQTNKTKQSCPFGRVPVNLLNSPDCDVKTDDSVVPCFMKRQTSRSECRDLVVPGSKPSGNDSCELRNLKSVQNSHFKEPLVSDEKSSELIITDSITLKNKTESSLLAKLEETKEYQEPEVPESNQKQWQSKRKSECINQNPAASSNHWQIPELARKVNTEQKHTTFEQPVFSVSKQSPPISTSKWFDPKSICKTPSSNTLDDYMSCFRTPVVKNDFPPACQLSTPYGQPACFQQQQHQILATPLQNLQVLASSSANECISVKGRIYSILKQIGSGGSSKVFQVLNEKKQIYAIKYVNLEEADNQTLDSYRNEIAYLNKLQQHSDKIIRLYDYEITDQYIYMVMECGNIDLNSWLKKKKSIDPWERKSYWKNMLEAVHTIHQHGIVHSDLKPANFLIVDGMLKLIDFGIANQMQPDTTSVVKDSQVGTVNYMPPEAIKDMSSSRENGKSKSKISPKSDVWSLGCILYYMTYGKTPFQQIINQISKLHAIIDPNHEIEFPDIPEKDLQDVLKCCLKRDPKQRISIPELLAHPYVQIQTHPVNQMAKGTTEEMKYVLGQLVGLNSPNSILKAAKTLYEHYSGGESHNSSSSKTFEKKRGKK
The assay can be described thus: Inhibition of Mps1 (unknown origin) pretreated for 10 mins followed by substrate addition and measured after 60 mins in presence of ATP by ADP-glo kinase assay. (In general: In ADP-Glo the light output rises with the ADP produced.)

The next assay concerns MDA-MB-468. The assay can be described thus: Antiproliferative activity against human MDA-MB-468 cells assessed inhibition of cell growth at 2 uM incubated for 72 hrs by CCK-8 assay relative to control. Type of assay: functional. In general terms: Formazan colour is commonly taken as a measure of viable cells.
The target of assay [2] is T2, Dual specificity protein kinase TTK (Homo sapiens) (UniProt P33981).
T2 sequence (whole entry): T1 sequence (P33981 whole entry)
Nature of the assay: Inhibition of Mps1 (unknown origin) at 1000 nM pretreated for 10 mins followed by substrate addition and measured after 60 mins in presence of ATP by ADP-glo kinase assay relative to control. The following applies: time 70.0 min.

In a further assay the test system is MV4-11. Nature of the assay: Antiproliferative activity against human MV4-11 cells assessed inhibition of cell growth incubated for 72 hrs by CCK-8 assay relative to control. Type of assay: functional.
The subject of a further assay is MCF7. Nature of the assay: Antiproliferative activity against human MCF7 cells assessed inhibition of cell growth incubated for 72 hrs by CCK-8 assay relative to control. Type of assay: functional.
For another assay, the system named is MDA-MB-231. Nature of the assay: Antiproliferative activity against human MDA-MB-231 cells assessed inhibition of cell growth incubated for 72 hrs by CCK-8 assay. The assay is classed as functional.
Assay [3] is described as follows: Antiproliferative activity against human RBE cells assessed inhibition of cell growth incubated for 72 hrs by CCK-8 assay relative to control. Type of assay: functional.

Molecules are shown by their SMILES.

The term IC50 denotes the concentration needed to halve the response being measured. What is called inhibition is the drop in the measured response relative to a control, in per cent. `C=CC(=O)Nc1cc(N2CCN(C(C)=O)CC2)ccc1Nc1nc(-n2ccc(C(=O)Nc3c(CC)cccc3CC)c2)c2cn[nH]c2n1`: the IC50 in assay [1] was more than 1000 nM. The inhibition at 2 µM in the assay on MDA-MB-468 is -2.46%.

As to `CCC(=O)Nc1cc(N2CCN(C(C)=O)CC2)ccc1Nc1nc(-n2ccc(C(=O)Nc3c(CC)cccc3CC)c2)c2cn[nH]c2n1`, the IC50 in assay [1] was more than 1000 nM. The inhibition at 2 µM with MDA-MB-468 was -3.96%.

Take `COc1cc(N2CCCCC2)ccc1Nc1nc(OC2CCCC2)c2c(-c3ccc(OC)c(OC)c3)n[nH]c2n1`: the inhibition in assay [2] stood at 49.1%. Besides, the “inhibition (INH)” value in the assay on MV4-11 was -21.2%; in the assay with MCF7 it was 16.66%; in the assay with MDA-MB-231 it was 25.74%; in assay [3] it was 16.61%. The inhibition at 2 µM in the assay on MDA-MB-468 is -3.15%.

Take `COc1cccc(-c2n[nH]c3nc(Nc4ccc(N5CCC(N(C)C)CC5)cc4OC)nc(OC4CCCC4)c23)c1`: the inhibition in assay [2] came out at 44.5%. In addition, the “inhibition (INH)” value is reported as -1.1% in the assay with MV4-11, 22.33% with MCF7, 22.71% with MDA-MB-231 and 4.83% in assay [3]. Also, the inhibition at 2 µM with MDA-MB-468 amounted to 2.34%.

For `COc1ccc(-c2n[nH]c3nc(Nc4ccc(N5CCC(N(C)C)CC5)cc4OC)nc(OC4CCCC4)c23)cc1`, in assay [2], the inhibition came out at 35.7%. Further, the “inhibition (INH)” value in the assay with MV4-11 is reported as -10.86%; with MCF7, 10.76%; in the assay with MDA-MB-231, 10.57%; in assay [3] it was 7.85%. The inhibition at 2 µM in the assay with MDA-MB-468 stood at 5.57%.

For the compound `CCc1cccc(CC)c1NC(=O)c1ccn(-c2nc(Nc3ccc(N4CCOCC4)cc3N3CCN(C)CC3)nc3[nH]ncc23)c1`, in assay [1], the IC50 was more than 1000 nM. Moreover, the inhibition at 2 µM in the assay on MDA-MB-468 was -1.94%.

`COc1ccc(-c2n[nH]c3nc(Nc4ccccc4)nc(OC4CCCC4)c23)cc1OC`: the inhibition in assay [2] was determined as 15.2%. The “inhibition (INH)” value in the assay with MV4-11 is -13.46%; with MCF7, 4.54%; with MDA-MB-231, 26.44%; in assay [3], 4.28%. Besides, in the assay with MDA-MB-468, the inhibition at 2 µM was determined as 19.9%.

With `C#CC(=O)Nc1cc(N2CCN(C(C)=O)CC2)ccc1Nc1nc(-n2ccc(C(=O)Nc3c(CC)cccc3CC)c2)c2cn[nH]c2n1`, the IC50 in assay [1] is more than 1000 nM. Also, the inhibition at 2 µM with MDA-MB-468 turned out to be 7.17%.

As to `COc1cc(N2CCC(N(C)C)CC2)ccc1Nc1nc(OC2CC2)c2c(-c3ccc(OC)c(OC)c3)n[nH]c2n1`, in assay [2], the inhibition came out at 63.9%. In addition, the “inhibition (INH)” value is given as -17.18% in the assay on MV4-11, 20.26% in the assay with MCF7, 35.24% in the assay with MDA-MB-231 and 14.2% in assay [3]. The inhibition at 2 µM in the assay on MDA-MB-468 stood at 30%.

Regarding `CCc1cccc(CC)c1NC(=O)c1ccn(-c2nc(Nc3ccc(N4CCN(C(C)=O)CC4)cc3NC(C)=O)nc3[nH]ncc23)c1`, the half-inhibitory concentration (IC50) in assay [1] was more than 1000 nM. Also, in the assay with MDA-MB-468, the inhibition at 2 µM was -2.92%.

As for `C=CC(=O)Nc1cc(N2CCN(C(C)=O)CC2)ccc1Nc1nc(-c2cc3n(c2)CCN(c2c(CC)cccc2CC)C3=O)c2cn[nH]c2n1`, in assay [1], the IC50 was more than 1000 nM. Further, in the assay on MDA-MB-468, the inhibition at 2 µM is 0.38%.

`C=C(F)C(=O)Nc1cc(N2CCN(C(C)=O)CC2)ccc1Nc1nc(-n2ccc(C(=O)Nc3c(CC)cccc3CC)c2)c2cn[nH]c2n1`: in assay [1], the concentration for half-maximal inhibition (IC50) is more than 1000 nM. Moreover, the inhibition at 2 µM with MDA-MB-468 was -1.41%.

For `COc1cc(N2CCN(C(C)=O)CC2)ccc1Nc1nc(-n2ccc(C(=O)Nc3c(C)cccc3C)c2)c2cn[nH]c2n1`, in assay [1], the IC50 amounted to 8.52 nM. The inhibition at 2 µM in the assay with MDA-MB-468 worked out at 34.8%.

With `CC#CC(=O)Nc1cc(N2CCOCC2)ccc1Nc1nc(-n2ccc(C(=O)Nc3c(CC)cccc3CC)c2)c2cn[nH]c2n1`, the half-maximal inhibitory concentration (IC50) in assay [1] was more than 1000 nM. In the assay with MDA-MB-468, the inhibition at 2 µM was -0.47%.

Turning to `C=CC(=O)Nc1cc(NC(=O)CC)ccc1Nc1nc(-n2ccc(C(=O)Nc3c(CC)cccc3CC)c2)c2cn[nH]c2n1`, in assay [1], the IC50 is more than 1000 nM. In addition, the inhibition at 2 µM with MDA-MB-468 stood at 5.51%.

`CCc1cccc(CC)c1NC(=O)c1ccn(-c2nc(Nc3ccc(N4CCN(C)CC4)cc3OC)nc3[nH]ncc23)c1`: in assay [1], the IC50 is 3.37 nM. Besides, in the assay with MDA-MB-468, the inhibition at 2 µM was found to be 64.3%.
